In brackets after ≈: the same amount, converted by molar mass.
What was measured:
[1] = test system: MES-SA/Dx5 cell line; experiment: Effect of flavonoid on multidrug (paclitaxel) resistance of MES-SA/Dx5 cell line; assay type: cell-based, human; settings: concentration of flavonoid for 50% reduction of relative resistance value to paclitaxel, MES-SA/Dx5 (P-glycoprotein overexpression), 48 hours; for EC50: Homo sapiens, read-out: Resistance overcoming effect EC50
Experimental: Human uterine cancer MES-SA cell line or MES-SA/Dx5 cell line which had acquired multidrug resistance through overexpression of P-glycoprotein (Cancer Res. 45, 4091-4096 (1985)) was suspended in 10% FBS/DMEM, and the resultant suspension was inoculated into a 96-well microplate, followed by culturing at 5% CO2 and 37° C. overnight (3×10^3 cells/50 μL/well). Thereafter, a solution of a flavonoid and paclitaxel in 10% FBS/DMEM (25 μL) was added to each of the wells, followed by culturing at 5% CO2 and 37° C. for 48 hours. After completion of culturing, the number of viable cells was counted by use of TetraColor ONE according to the attached instruction manual.

[2] = test system: A549/SN-38-4 cell line; experiment: Effect of flavonoid in overcoming anticancer drug (SN-38) resistance of A549/SN-38 cell line; assay type: cell-based, human; settings: concentration of flavonoid for 50% reduction of relative resistance value to SN-38, A549/SN-38-4, 48 hours; for EC50: Homo sapiens
Experimental: The A549 cell line or the A549/SN-38-4 cell line was suspended in 10% FBS/Ham's F-12, and the resultant suspension was inoculated into a 96-well microplate, followed by culturing at 5% CO2 and 37° C. overnight (2×10^3 cells/50 μL/well). Thereafter, a solution of a flavonoid and SN-38 in 10% FBS/Ham's F-12 (25 μL) was added to each of the wells, followed by culturing at 5% CO2 and 37° C. for 48 hours. After completion of culturing, the number of viable cells was counted by use of TetraColor ONE according to the attached instruction manual.

Compound | EC50 [1] | EC50 [2] | Resistance overcoming effect EC50 [1] | Resistance overcoming effect EC50 [2]
COc1cc(O)c2c(c1)OC(c1ccc(O)cc1)CC2=O (centres unmarked) [Compound 2-2, 4′,5-Dihydroxy-7-methoxyflavanone] | > 1 µg/mL | 0.48 µg/mL (≈ 1.68 µM) |  | 
COc1ccc(-c2cc(=O)c3cc(OC)ccc3o2)c(OC)c1 [Compound 1-16, 2′,4′,6-Trimethoxyflavone] | > 1 µg/mL | 0.098 µg/mL (≈ 0.314 µM) |  | 
COc1cc(O)c2c(=O)c(OC)c(-c3ccc(O)c(OC)c3)oc2c1 [Compound 1-22, 4′,5-Dihydroxy-3,3′,7-trimethoxyflavone] |  | 0.046 µg/mL (≈ 0.134 µM) |  | 
O=c1cc(-c2ccc(O)cc2)oc2cc(OC3O[C@H](CO)[C@@H](O)[C@H](O)[C@H]3O)cc(O)c12 (some centres unmarked) [Compound 1-10, 4′,5-Dihydroxyflavone-7-glucoside] |  |  | >1.0 µg/mL | 0.17 µg/mL
CC(C)=CCc1c2c(c(O)c3c1OC(c1ccc(O)cc1)CC3=O)C=CC(C)(C)O2 (centres unmarked) [Compound 2-3, 2H,6H-Benzo[1,2-b:5,4-b′]dipyran-6-one,7,8-dihydro-5-hydroxy-8-(4-hydroxyphenyl)-2,2-dimethyl-10-(3-methyl-2-butenyl)] |  |  |  | 0.067 µg/mL
COc1ccc(C2CC(=O)c3c(O)cc(O)cc3O2)cc1O (centres unmarked) [Compound 2-1, 3′,5,7-Trihydroxy-4′-methoxyflavanone] | > 1 µg/mL | 0.15 µg/mL (≈ 0.496 µM) |  | 
COc1cc(O)c2c(=O)cc(-c3ccc(O)cc3)oc2c1 [Compound 1-1, 5,4′-Dihydroxy-7-methoxyflavone] | > 1 µg/mL | 0.017 µg/mL (≈ 0.0598 µM) |  | 
COc1cc2oc(-c3ccc(OC4O[C@H](CO)[C@@H](O)[C@H](O)[C@H]4O)cc3)cc(=O)c2c(O)c1OC (some centres unmarked) [Compound 1-26, 5-Hydroxy-6,7-dimethoxyflavone-4′-glucoside] |  |  |  | 0.14 µg/mL
COc1cc2oc(-c3ccc(O)cc3)cc(=O)c2c(O)c1OC [Compound 1-19, 5,4′-Dihydroxy-6,7-dimethoxyflavone] | > 1 µg/mL | 0.015 µg/mL (≈ 0.0477 µM) |  | 
COc1cccc(-c2cc(=O)c3cc(OC)ccc3o2)c1 [Compound 1-21, 3′,6-Dimethoxyflavone] | > 1 µg/mL | 0.52 µg/mL (≈ 1.84 µM) |  | 
COc1cc(N)c(-c2cc(=O)c3c(OC)c(OC)c(OC)c(OC)c3o2)cc1OC [Compound 1-5, 2′-Amino-4′,5,5′,6,7,8-hexamethoxyflavone] | > 1 µg/mL | 0.081 µg/mL (≈ 0.194 µM) |  | 
COc1cc2oc(-c3ccccc3)cc(=O)c2c(O)c1O [Compound 1-12, 5,6-Dihydroxy-7-methoxyflavone] | > 1 µg/mL | 0.074 µg/mL (≈ 0.26 µM) |  | 
CC(C)=CCc1c(-c2ccc(O)cc2O)oc2c3c(cc(O)c2c1=O)OC(C)(C)C=C3 [Compound 1-28, 4H,8H-Benzo[1,2-b:3,4-b′]dipyran-4-one,2-(2,4-dihydroxyphenyl)-5-hydroxy-8,8-dimethyl-3-(3-methyl-2-butenyl)] |  |  |  | 2.0 µg/mL
O=c1cc(-c2ccccc2)oc2cc(O)cc(O)c12 [Compound 1-3, 5,7-Dihydroxyflavone] | > 1 µg/mL | 0.1 µg/mL (≈ 0.393 µM) |  | 
COc1cc(O)c2c(=O)cc(-c3ccc(OC4O[C@H](CO)[C@@H](O)[C@H](O)[C@H]4O)cc3)oc2c1 (some centres unmarked) [Compound 1-27, 5-Hydroxy-7-methoxyflavone-4′-glucoside] |  |  |  | 0.042 µg/mL
COc1ccc(-c2cc(=O)c3c(OC)c(OC)c(OC)cc3o2)cc1OC [Compound 1-25, 3′,4′,5,6,7-Pentamethoxyflavone] |  | 0.53 µg/mL (≈ 1.42 µM) |  | 
COc1cc(O)c2c(=O)cc(-c3ccc(OC)c(OC)c3)oc2c1 [Compound 1-23, 5-Hydroxy-3′,4′,7-trimethoxyflavone] |  | 0.007 µg/mL (≈ 0.0213 µM) |  | 
COc1cc2oc(-c3ccc(O)cc3O)c(CC=C(C)C)c(=O)c2c(O)c1C=CC(C)C [Compound 1-29, 2′,4′,5-Trihydroxy-7-methoxy-6-(3-methyl-1-butenyl)-3-(3-methyl-2-butenyl)-flavone] |  | 0.23 µg/mL (≈ 0.527 µM) |  | 
COc1cc(-c2cc(=O)c3c(OC)c(OC)c(OC)c(OC)c3o2)c([N+](=O)[O-])cc1OC [Compound 1-20, 2′-Nitro-4′,5,5′,6,7,8-hexamethoxyflavone] | > 1 µg/mL | 0.75 µg/mL (≈ 1.68 µM) |  | 
COc1ccc(-c2cc(=O)c3c(O)c(OC)c(OC)cc3o2)cc1O [Compound 1-6, 3′,5-Dihydroxy-4′,6,7-trimethoxyflavone] | > 1 µg/mL | 0.017 µg/mL (≈ 0.0494 µM) |  | 
COc1ccc(-c2oc3c(OC)c(OC)c(OC)c(OC)c3c(=O)c2OC)cc1OC [Compound 1-24, 3,3′,4′,5,6,7,8-Heptamethoxyflavone] |  | 0.054 µg/mL (≈ 0.125 µM) |  | 
O=c1cc(-c2ccc(O)c(O)c2)oc2cc(O)cc(O)c12 [Compound 1-8, 3′,4′,5,7-Tetrahydroxyflavone] | > 1 µg/mL | 0.46 µg/mL (≈ 1.61 µM) |  | 
O=c1cc(-c2ccc(O)cc2)oc2cc(O)cc(O)c12 [Compound 1-9, 4′,5,7-Trihydroxyflavone] | > 1 µg/mL | 0.12 µg/mL (≈ 0.444 µM) |  | 
COc1ccc(-c2oc3ccccc3c(=O)c2OC)cc1 [Compound 1-17, 3,4′-Dimethoxyflavone] | > 1 µg/mL | 0.06 µg/mL (≈ 0.213 µM) |  | 
COc1ccc(-c2cc(=O)c3ccccc3o2)cc1OC [Compound 1-4, 3′,4′-Dimethoxyflavone] | > 1 µg/mL | 0.03 µg/mL (≈ 0.106 µM) |  | 
COc1cc(-c2cc(=O)c3c(O)cc(O)cc3o2)cc(OC)c1OC [Compound 1-2, 5,7-Dihydroxy-3′,4′,5′-trimethoxyflavone] | > 1 µg/mL | 0.048 µg/mL (≈ 0.139 µM) |  | 
Cc1ccc(-c2cc(=O)c3cc(Cl)cc(Cl)c3o2)cc1 [Compound 1-18, 6,8-Dichloro-4′-methylflavone] | > 1 µg/mL | 0.14 µg/mL (≈ 0.459 µM) |  | 
COc1cc(-c2oc3cc(O)cc(O)c3c(=O)c2O)ccc1O [Compound 1-11, 3,4′,5,7-Tetrahydroxy-3′-methoxyflavone] | > 1 µg/mL | 0.16 µg/mL (≈ 0.506 µM) |  | 
O=c1c(O)c(-c2ccc(O)cc2)oc2cc(O)cc(O)c12 [Compound 1-7, 3,4′,5,7-Tetrahydroxyflavone] | > 1 µg/mL | 0.13 µg/mL (≈ 0.454 µM) |  | 
COc1ccc(-c2cc(=O)c3c(OC)c(OC)c(OC)cc3o2)cc1O [Compound 1-13, 3′-Hydroxy-4′,5,6,7-tetramethoxyflavone] | > 1 µg/mL | 0.11 µg/mL (≈ 0.307 µM) |  | 

Results, then the compound that gave them:

EC50 [1] | EC50 [2] | Resistance overcoming effect EC50 [1] | Resistance overcoming effect EC50 [2] | Compound
> 1 µg/mL | 0.0074 µg/mL (≈ 0.0198 µM) |  |  | COc1cc(O)c(C(=O)/C=C/c2cc(OC)c(OC)cc2OC)c(OC)c1 [Compound 3-6, 2′-Hydroxy-2,4,4′,5,6′-pentamethoxychalcone]
> 1 µg/mL | 0.023 µg/mL (≈ 0.0574 µM) |  |  | CCOc1cc(O)c(C(=O)/C=C/c2ccc(OCC)c(OCC)c2)c(OCC)c1 [Compound 3-4, 2′-Hydroxy-3,4,4′,6′-tetraethoxychalcone]
 |  |  | 0.18 µg/mL | CC(C)=CC1Oc2cc(O)ccc2-c2oc3cc(O)c(C=CC(C)C)c(O)c3c(=O)c21 (centres unmarked) [Compound 5-1, 6H,7H-[1]benzopyrano[4,3-b][1]benzopyran-7-one,3,8,10-trihydroxy-9-(3-methyl-1-butenyl)-6-(2-methyl-1-propenyl)]
> 1 µg/mL | 0.79 µg/mL (≈ 2.63 µM) |  |  | COc1ccc(/C=C/C(=O)c2c(O)cc(OC)cc2O)cc1 [Compound 3-8, 2′,6′-Dihydroxy-4,4′-dimethoxychalcone]
> 1 µg/mL | 0.94 µg/mL (≈ 2.99 µM) |  |  | COc1ccc(O)c(C(=O)/C=C/c2cccc(OC)c2OC)c1 [Compound 3-9, 2′-Hydroxy-2,3,5′-trimethoxychalcone]
> 1 µg/mL | 0.04 µg/mL (≈ 0.133 µM) |  |  | COc1cc(O)c(C(=O)/C=C/c2ccc(O)cc2)c(OC)c1 [Compound 3-1, 2′,4-Dihydroxy-4′,6′-dimethoxychalcone]
> 1 µg/mL | 0.16 µg/mL (≈ 0.563 µM) |  |  | COc1ccc(/C=C/C(=O)c2ccccc2O)cc1OC [Compound 3-3, 2′-Hydroxy-3,4-dimethoxychalcone]
> 1 µg/mL | 0.23 µg/mL (≈ 0.857 µM) |  |  | COc1ccc(/C=C/C(=O)c2ccccc2)cc1OC [Compound 3-2, 3,4-Dimethoxychalcone]
 |  | >1.0 µg/mL | 0.84 µg/mL | COc1ccc(-c2coc3cc(OC4O[C@H](CO)[C@@H](O)[C@H](O)[C@H]4O)cc(O)c3c2=O)cc1 (some centres unmarked) [Compound 4-2, 5-Hydroxy-4′-methoxyisoflavone-7-glucoside]
> 1 µg/mL | 0.65 µg/mL (≈ 1.52 µM) |  |  | COc1cc(/C=C/C(=O)c2cc(Br)cc(Cl)c2O)cc(OC)c1OC [Compound 3-7, 5′-Bromo-3′-chloro-2′-hydroxy-3,4,5-trimethoxychalcone]
> 1 µg/mL | 0.33 µg/mL (≈ 1.16 µM) |  |  | COc1ccc(-c2coc3cc(O)cc(O)c3c2=O)cc1 [Compound 4-1, 5,7-Dihydroxy-4′-methoxyisoflavone]
> 1 µg/mL | 0.97 µg/mL (≈ 2.27 µM) |  |  | COc1cc(/C=C/C(=O)c2cc(Cl)cc(Br)c2O)cc(OC)c1OC [Compound 3-10, 3′-Bromo-5′-Chloro-2′-hydroxy-3,4,5-trimethoxychalcone]
